From BindingDB's records for doi:10.1016/S0960-894X(00)80229-2 (1992)

Assay: Agonistic activity at kappa opioid receptor of rabbit vas deferens

Row | SMILES | IC50 [nM]
1 | COc1cccc(CC(=O)N2CCN(C(C)=O)CC2CN2CC[C@H](O)C2)c1 (stereo partly drawn) [1-[4-Acetyl-2-((S)-3-hydroxy-pyrrolidin-1-ylmethyl)-piperazin-1-yl]-2-(3-methoxy-phenyl)-ethanone] | 49
2 | CC(=O)N1CCN(C(=O)Cc2cc(F)cc(F)c2)C(CN2CC[C@H](O)C2)C1 (stereo partly drawn) [1-[4-Acetyl-2-((S)-3-hydroxy-pyrrolidin-1-ylmethyl)-piperazin-1-yl]-2-(3,5-difluoro-phenyl)-ethanone] | 4.6
3 | CC(=O)N1CCN(C(=O)Cc2ccc(C(F)(F)F)cc2)C(CN2CC[C@H](O)C2)C1 (stereo partly drawn) [1-[4-Acetyl-2-((S)-3-hydroxy-pyrrolidin-1-ylmethyl)-piperazin-1-yl]-2-(4-trifluoromethyl-phenyl)-ethanone] | 1.5
4 | COc1ccc(CC(=O)N2CCN(C(C)=O)CC2CN2CC[C@H](O)C2)cc1 (stereo partly drawn) [1-[4-Acetyl-2-((S)-3-hydroxy-pyrrolidin-1-ylmethyl)-piperazin-1-yl]-2-(4-methoxy-phenyl)-ethanone] | 230
5 | CC(=O)N1CCN(C(=O)Cc2ccccc2)C(CN2CC[C@H](O)C2)C1 (stereo partly drawn) [1-[4-Acetyl-2-((S)-3-hydroxy-pyrrolidin-1-ylmethyl)-piperazin-1-yl]-2-phenyl-ethanone] | 400
6 | CC(=O)N1CCN(C(=O)Cc2ccc(S(C)(=O)=O)cc2)C(CN2CC[C@H](O)C2)C1 (stereo partly drawn) [1-[4-Acetyl-2-((S)-3-hydroxy-pyrrolidin-1-ylmethyl)-piperazin-1-yl]-2-(4-methanesulfonyl-phenyl)-ethanone] | 0.9
7 | CSc1ccc(CC(=O)N2CCN(C(C)=O)CC2CN2CC[C@H](O)C2)cc1 (stereo partly drawn) [1-[4-Acetyl-2-((S)-3-hydroxy-pyrrolidin-1-ylmethyl)-piperazin-1-yl]-2-(4-methylsulfanyl-phenyl)-ethanone] | 37
8 | COC(=O)N1CCN(C(=O)Cc2ccc(Cl)c(Cl)c2)[C@@H](CN2CCCC2)C1 [4-[2-(3,4-Dichloro-phenyl)-acetyl]-3-pyrrolidin-1-ylmethyl-piperazine-1-carboxylic acid methyl ester] | 0.02
9 | CC(=O)N1CCN(C(=O)Cc2ccc([S+](C)[O-])cc2)C(CN2CC[C@H](O)C2)C1 (stereo partly drawn) [1-[4-Acetyl-2-((S)-3-hydroxy-pyrrolidin-1-ylmethyl)-piperazin-1-yl]-2-(4-methanesulfinyl-phenyl)-ethanone] | 140
10 | CC(=O)N1CCN(C(=O)Cc2cccc([N+](=O)[O-])c2)C(CN2CC[C@H](O)C2)C1 (stereo partly drawn) [1-[4-Acetyl-2-((S)-3-hydroxy-pyrrolidin-1-ylmethyl)-piperazin-1-yl]-2-(3-nitro-phenyl)-ethanone] | 14
11 | CC(=O)N1CCN(C(=O)Cc2ccc([N+](=O)[O-])cc2)C(CN2CC[C@H](O)C2)C1 (stereo partly drawn) [1-[4-Acetyl-2-((S)-3-hydroxy-pyrrolidin-1-ylmethyl)-piperazin-1-yl]-2-(4-nitro-phenyl)-ethanone] | 6.3
12 | CC(=O)N1CCN(C(=O)Cc2ccc(Cl)c(Cl)c2)C(CN2CC[C@H](O)C2)C1 (stereo partly drawn) [1-[4-Acetyl-2-((S)-3-hydroxy-pyrrolidin-1-ylmethyl)-piperazin-1-yl]-2-(3,4-dichloro-phenyl)-ethanone] | 0.22
